Data as given in paper PMC10092294 (Biomaterials, 2023).
Values belong to the compound of their own block, whether it stands above or below them.

Assays:
Hec50co GOFp53 cells [1] = test: MTS cell viability assay, Hec50co GOFp53; format: cell-based; conditions: Homo sapiens, 72 h, read-out: cell viability
Hec50co LOFp53 cells [2] = test: MTS cell viability assay, Hec50co LOFp53; format: cell-based; conditions: Homo sapiens, 72 h, read-out: cell viability
caspase-3 = test: Caspase-3 activity in Hec50co LOFp53 cells; format: cell-based, human; conditions: 5 nM or 10 nM PTX alone, 72 hours
Hec50co LOFp53 cells [3] = test: Cell cycle assay; format: cell-based, human; conditions: 10 nM PTX alone, 24 hours
KLE GOFp53 cells = test: MTS cell viability assay, KLE GOFp53; format: cell-based; conditions: Homo sapiens, 72 h, read-out: cell viability
Hec50co GOFp53 cells [4] = test: Cell cycle assay; format: cell-based, human; conditions: 10 nM PTX alone, 24 hours
human Topo I = target: T1, human Topo I (Homo sapiens, UniProt P11387); test: Topoisomerase I inhibition assay; format: biochemical; conditions: for Topo I inhibition: final drug concentration 100 μM
T1 sequence (P11387 1-765): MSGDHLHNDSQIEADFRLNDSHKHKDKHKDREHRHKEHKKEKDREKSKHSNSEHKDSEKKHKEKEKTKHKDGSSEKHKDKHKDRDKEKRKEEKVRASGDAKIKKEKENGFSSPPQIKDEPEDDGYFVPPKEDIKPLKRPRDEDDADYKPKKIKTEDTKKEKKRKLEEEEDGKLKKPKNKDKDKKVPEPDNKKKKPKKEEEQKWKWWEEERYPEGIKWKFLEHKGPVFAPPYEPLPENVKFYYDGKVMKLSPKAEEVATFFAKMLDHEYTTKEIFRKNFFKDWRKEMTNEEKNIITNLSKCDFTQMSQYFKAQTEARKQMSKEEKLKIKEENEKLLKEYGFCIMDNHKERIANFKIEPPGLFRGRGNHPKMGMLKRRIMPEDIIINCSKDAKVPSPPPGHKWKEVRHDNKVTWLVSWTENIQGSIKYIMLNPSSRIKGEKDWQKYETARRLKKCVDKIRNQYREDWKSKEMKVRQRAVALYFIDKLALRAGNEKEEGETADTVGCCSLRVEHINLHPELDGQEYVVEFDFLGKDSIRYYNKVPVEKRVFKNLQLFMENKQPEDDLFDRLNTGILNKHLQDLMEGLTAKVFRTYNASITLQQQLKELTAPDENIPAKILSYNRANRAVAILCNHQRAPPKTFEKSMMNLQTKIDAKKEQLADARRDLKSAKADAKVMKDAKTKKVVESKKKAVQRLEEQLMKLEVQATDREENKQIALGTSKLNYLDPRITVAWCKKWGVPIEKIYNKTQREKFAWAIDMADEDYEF

tubulin = tubulin (Sus scrofa, UniProt P02554); test: Fluorescence-based tubulin polymerization assay; format: biochemical; conditions: 3 μM
Chain of tubulin (P02554 whole entry): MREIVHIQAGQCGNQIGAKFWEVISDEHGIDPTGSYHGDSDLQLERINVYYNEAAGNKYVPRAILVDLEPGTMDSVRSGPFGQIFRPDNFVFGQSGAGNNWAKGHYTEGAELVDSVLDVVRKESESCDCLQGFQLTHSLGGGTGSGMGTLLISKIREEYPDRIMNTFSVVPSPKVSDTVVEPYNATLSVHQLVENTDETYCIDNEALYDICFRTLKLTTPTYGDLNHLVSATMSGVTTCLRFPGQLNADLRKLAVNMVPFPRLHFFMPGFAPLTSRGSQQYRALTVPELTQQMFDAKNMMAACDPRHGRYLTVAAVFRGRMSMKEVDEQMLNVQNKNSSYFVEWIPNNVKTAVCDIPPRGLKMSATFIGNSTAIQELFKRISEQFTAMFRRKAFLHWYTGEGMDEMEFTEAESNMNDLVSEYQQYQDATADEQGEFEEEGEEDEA
Chain of tubulin (P02550 whole entry partner): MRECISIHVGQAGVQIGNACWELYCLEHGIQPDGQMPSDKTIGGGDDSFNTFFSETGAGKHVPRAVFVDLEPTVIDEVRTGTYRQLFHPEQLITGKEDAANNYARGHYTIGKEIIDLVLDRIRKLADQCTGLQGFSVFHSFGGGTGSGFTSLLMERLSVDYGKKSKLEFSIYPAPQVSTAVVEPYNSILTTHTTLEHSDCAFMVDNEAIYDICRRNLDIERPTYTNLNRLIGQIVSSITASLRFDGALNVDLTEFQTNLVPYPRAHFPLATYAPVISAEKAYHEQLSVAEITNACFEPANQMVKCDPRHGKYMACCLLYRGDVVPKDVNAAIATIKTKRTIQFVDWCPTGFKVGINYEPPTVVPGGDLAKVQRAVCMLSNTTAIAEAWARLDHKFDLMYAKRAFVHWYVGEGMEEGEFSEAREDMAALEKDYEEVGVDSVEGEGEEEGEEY

[5] = tested on: Hec50co LOFp53 xenograft tumors; test: In vivo antitumor efficacy, human endometrial cancer xenograft model; set-up: species or system athymic Nu/Nu mice; conditions: five doses
human Topo IIα = human Topo IIα (Homo sapiens, UniProt P11388); test: Topoisomerase II inhibition assay; format: biochemical; conditions: read-out: Topo II inhibition
Chain of human Topo IIα (P11388 whole entry): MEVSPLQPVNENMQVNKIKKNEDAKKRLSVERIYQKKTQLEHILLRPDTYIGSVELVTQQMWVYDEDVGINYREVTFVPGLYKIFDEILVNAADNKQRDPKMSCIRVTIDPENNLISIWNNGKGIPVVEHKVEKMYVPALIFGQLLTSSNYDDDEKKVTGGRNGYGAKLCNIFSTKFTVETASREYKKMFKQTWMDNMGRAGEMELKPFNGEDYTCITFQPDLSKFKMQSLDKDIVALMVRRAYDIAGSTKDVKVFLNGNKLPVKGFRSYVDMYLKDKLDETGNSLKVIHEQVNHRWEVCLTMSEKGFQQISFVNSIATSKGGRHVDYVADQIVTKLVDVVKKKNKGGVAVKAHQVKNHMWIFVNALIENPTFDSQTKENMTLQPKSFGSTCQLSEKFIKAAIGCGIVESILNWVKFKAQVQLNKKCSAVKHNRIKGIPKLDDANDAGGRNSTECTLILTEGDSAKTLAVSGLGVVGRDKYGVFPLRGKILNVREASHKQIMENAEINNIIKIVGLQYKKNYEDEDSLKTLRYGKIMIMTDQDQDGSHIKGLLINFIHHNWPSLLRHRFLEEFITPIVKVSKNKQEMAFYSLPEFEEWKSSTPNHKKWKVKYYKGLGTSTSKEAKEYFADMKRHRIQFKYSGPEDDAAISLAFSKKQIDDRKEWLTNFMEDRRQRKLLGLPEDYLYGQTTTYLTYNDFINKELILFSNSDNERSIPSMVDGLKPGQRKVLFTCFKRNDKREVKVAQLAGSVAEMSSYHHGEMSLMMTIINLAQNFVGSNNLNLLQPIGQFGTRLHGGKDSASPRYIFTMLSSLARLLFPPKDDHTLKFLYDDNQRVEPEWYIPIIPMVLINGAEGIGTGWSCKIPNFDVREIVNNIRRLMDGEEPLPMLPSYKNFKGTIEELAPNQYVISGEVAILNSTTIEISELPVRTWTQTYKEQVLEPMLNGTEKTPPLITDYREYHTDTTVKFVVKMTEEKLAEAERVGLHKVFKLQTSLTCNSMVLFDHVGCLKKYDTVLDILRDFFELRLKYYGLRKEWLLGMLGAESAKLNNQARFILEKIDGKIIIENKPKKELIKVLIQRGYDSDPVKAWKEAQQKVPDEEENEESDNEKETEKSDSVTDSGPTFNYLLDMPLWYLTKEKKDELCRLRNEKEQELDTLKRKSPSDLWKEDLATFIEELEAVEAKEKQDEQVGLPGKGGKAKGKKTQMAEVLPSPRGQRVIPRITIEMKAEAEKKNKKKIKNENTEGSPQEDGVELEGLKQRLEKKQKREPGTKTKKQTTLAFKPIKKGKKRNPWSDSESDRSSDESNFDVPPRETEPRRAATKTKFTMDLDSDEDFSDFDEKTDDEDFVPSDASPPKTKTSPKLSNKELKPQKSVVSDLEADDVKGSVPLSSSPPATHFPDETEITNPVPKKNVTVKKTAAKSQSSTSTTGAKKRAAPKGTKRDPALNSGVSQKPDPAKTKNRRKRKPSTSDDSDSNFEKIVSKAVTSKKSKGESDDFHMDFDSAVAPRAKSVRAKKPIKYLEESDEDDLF

caspase-9 = test: Caspase-9 activity in Hec50co LOFp53 cells; format: cell-based, human; conditions: 24 hours
microtubule assembly = conditions: cited from earlier work
[6] = tested on: four different endometrial cancer cell lines; format: cell-based, human; conditions: 72 hours

- Topo I inhibition (human Topo I): no activity
- onset time of tubulin polymerization (tubulin): approximately 5 minutes
- inhibition at 100 µM (human Topo IIα): 8.3 ± 4.2%
Compound: CC(=O)O[C@H]1C(=O)[C@@]2(C)[C@H]([C@H](OC(=O)c3ccccc3)[C@]3(O)C[C@H](OC(=O)[C@H](O)[C@@H](NC(=O)c4ccccc4)c4ccccc4)C(C)=C1C3(C)C)[C@]1(OC(C)=O)CO[C@@H]1C[C@@H]2O [PTX, paclitaxel]
- viability at 0.01 µM (Hec50co GOFp53 cells [1]): 17.9 ± 1.4%
- viability at 0.01 µM (Hec50co LOFp53 cells [2]): 31.2 ± 4.1%
- caspase-3 activity vs untreated (caspase-3): significantly higher
- cells in the G2/M phase (Hec50co LOFp53 cells [3]): 43.7 ± 0.5%
- viability at 0.01 µM (KLE GOFp53 cells): 63.5 ± 0.6%
- cells in the G2/M phase (Hec50co GOFp53 cells [4]): 57.3 ± 1.1%
- average tumor volumes vs PBS group ([5]; 5 mg/kg PTX SC peritumoral): smaller than those in control mice injected with PBS, albeit not significantly
- average weight of tumors vs PBS group, day 53 ([5]; 5 mg/kg PTX ± 5 mg/kg CIP2b SC peritumoral): not significantly different
- caspase-9 activity vs untreated (caspase-9; 5 nM PTX): did not show a significant difference
- caspase-9 activity vs untreated (caspase-9; 10 nM PTX): significant increase

- inhibition at 100 µM (human Topo IIα): 96.3 ± 0.8%
Compound: COc1cc([C@@H]2c3cc4c(cc3[C@@H](O[C@@H]3O[C@@H]5CO[C@@H](C)O[C@H]5[C@H](O)[C@H]3O)[C@H]3COC(=O)[C@H]23)OCO4)cc(OC)c1O [ETO, etoposide]

Compound: CC[C@@]1(O)C(=O)OCc2c1cc1n(c2=O)Cc2cc3ccccc3nc2-1 [CAM, camptothecin]
- inhibition at 100 µM (human Topo I; read-out: Topo I inhibition): 52.6 ± 1.3%

- Topo I inhibition (human Topo I): no activity
- inhibition at 100 µM (human Topo IIα): 62.3 ± 17.1%
Compound: O=C(O)c1cn(C2CC2)c2cc(N3CCNCC3)c(F)cc2c1=O [CIP, ciprofloxacin]
- impact on microtubule assembly in cells (microtubule assembly): does not impact
- benefit of CIP alone or in combination with PTX in comparison to PTX alone [6]: no benefits
